pKi: −log10 of the molar value.

This experiment deals with Mu-type opioid receptor (Homo sapiens, UniProt P35372). Put plainly: Competition Binding Assay: The competition binding assay was conducted to determine the affinity and selectivity of the synthesized compounds to MOR over KOR and DOR. The Kd and Bmax values for [3H]NLX at MOR and [3H]DPN at KOR had been determined previously. […] [3H]NLX was used to label MOR whilst [3H]DPN was used to label both DOR and KOR. The potency of the new compounds in displacing the specific binding of the radioligand was determined by linear regression analysis of Hill plots.
Sequence of Mu-type opioid receptor (P35372 whole entry): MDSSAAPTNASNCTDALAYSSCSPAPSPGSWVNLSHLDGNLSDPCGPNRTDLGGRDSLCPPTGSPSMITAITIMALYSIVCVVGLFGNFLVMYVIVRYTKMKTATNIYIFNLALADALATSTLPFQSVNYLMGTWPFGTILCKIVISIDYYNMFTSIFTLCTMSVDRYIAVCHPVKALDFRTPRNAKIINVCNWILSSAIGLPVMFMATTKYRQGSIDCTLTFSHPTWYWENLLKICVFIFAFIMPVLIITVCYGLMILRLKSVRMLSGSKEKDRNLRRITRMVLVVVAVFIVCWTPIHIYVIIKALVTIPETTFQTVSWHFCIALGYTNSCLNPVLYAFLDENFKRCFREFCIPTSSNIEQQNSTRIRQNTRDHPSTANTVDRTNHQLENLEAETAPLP
Broadly, the pKi is the Ki on a negative log10 scale, so that one unit is a factor of ten. Consider `O=C(Cc1c[nH]c2ccccc12)N[C@@H]1CC[C@@]2(O)[C@H]3Cc4ccc(O)c5c4[C@@]2(CCN3CC2CC2)[C@H]1O5`, for which the pKi was 9.62. The result for `O=C(N[C@H]1CC[C@@]2(O)[C@H]3Cc4ccc(O)c5c4[C@@]2(CCN3CC2CC2)[C@H]1O5)c1ccc2cc[nH]c2c1` reads 9.36.

Regarding `O=C(CCCc1c[nH]c2ccccc12)N[C@@H]1CC[C@@]2(O)[C@H]3Cc4ccc(O)c5c4[C@@]2(CCN3CC2CC2)[C@H]1O5`, the pKi was 9.69. Consider `O=C(CCc1c[nH]c2ccccc12)N[C@@H]1CC[C@@]2(O)[C@H]3Cc4ccc(O)c5c4[C@@]2(CCN3CC2CC2)[C@H]1O5`, for which the pKi is 9.78.

`O=C(CCCc1c[nH]c2ccccc12)N[C@H]1CC[C@@]2(O)[C@H]3Cc4ccc(O)c5c4[C@@]2(CCN3CC2CC2)[C@H]1O5` had a pKi of 9.53. This pKi is 0.25 log units lower than that of the compound before.

`O=C(N[C@H]1CC[C@@]2(O)[C@H]3Cc4ccc(O)c5c4[C@@]2(CCN3CC2CC2)[C@H]1O5)c1cccc2[nH]ccc12` gave a pKi of 9.58. Regarding `O=C(N[C@H]1CC[C@@]2(O)[C@H]3Cc4ccc(O)c5c4[C@@]2(CCN3CC2CC2)[C@H]1O5)c1c[nH]c2ccccc12`, the pKi is 9.54. The compound `O=C(N[C@H]1CC[C@@]2(O)[C@H]3Cc4ccc(O)c5c4[C@@]2(CCN3CC2CC2)[C@H]1O5)c1cc2ccccc2[nH]1` showed a pKi of 9.44. With `O=C(N[C@H]1CC[C@@]2(O)[C@H]3Cc4ccc(O)c5c4[C@@]2(CCN3CC2CC2)[C@H]1O5)c1ccc2[nH]ccc2c1`, the pKi is 9.12. In the case of `O=C(Cc1c[nH]c2ccccc12)N[C@H]1CC[C@@]2(O)[C@H]3Cc4ccc(O)c5c4[C@@]2(CCN3CC2CC2)[C@H]1O5`, the pKi was 9.08. The result for `O=C(CCc1c[nH]c2ccccc12)N[C@H]1CC[C@@]2(O)[C@H]3Cc4ccc(O)c5c4[C@@]2(CCN3CC2CC2)[C@H]1O5` reads 9.36.

These data come from ChEMBL document CHEMBL5728432, “Potent and selective mu opioid receptor modulators” (2021).
